pIC50: −log10 of the molar value.

GCN2, sequence (Q9P2K8 whole entry, species assumed): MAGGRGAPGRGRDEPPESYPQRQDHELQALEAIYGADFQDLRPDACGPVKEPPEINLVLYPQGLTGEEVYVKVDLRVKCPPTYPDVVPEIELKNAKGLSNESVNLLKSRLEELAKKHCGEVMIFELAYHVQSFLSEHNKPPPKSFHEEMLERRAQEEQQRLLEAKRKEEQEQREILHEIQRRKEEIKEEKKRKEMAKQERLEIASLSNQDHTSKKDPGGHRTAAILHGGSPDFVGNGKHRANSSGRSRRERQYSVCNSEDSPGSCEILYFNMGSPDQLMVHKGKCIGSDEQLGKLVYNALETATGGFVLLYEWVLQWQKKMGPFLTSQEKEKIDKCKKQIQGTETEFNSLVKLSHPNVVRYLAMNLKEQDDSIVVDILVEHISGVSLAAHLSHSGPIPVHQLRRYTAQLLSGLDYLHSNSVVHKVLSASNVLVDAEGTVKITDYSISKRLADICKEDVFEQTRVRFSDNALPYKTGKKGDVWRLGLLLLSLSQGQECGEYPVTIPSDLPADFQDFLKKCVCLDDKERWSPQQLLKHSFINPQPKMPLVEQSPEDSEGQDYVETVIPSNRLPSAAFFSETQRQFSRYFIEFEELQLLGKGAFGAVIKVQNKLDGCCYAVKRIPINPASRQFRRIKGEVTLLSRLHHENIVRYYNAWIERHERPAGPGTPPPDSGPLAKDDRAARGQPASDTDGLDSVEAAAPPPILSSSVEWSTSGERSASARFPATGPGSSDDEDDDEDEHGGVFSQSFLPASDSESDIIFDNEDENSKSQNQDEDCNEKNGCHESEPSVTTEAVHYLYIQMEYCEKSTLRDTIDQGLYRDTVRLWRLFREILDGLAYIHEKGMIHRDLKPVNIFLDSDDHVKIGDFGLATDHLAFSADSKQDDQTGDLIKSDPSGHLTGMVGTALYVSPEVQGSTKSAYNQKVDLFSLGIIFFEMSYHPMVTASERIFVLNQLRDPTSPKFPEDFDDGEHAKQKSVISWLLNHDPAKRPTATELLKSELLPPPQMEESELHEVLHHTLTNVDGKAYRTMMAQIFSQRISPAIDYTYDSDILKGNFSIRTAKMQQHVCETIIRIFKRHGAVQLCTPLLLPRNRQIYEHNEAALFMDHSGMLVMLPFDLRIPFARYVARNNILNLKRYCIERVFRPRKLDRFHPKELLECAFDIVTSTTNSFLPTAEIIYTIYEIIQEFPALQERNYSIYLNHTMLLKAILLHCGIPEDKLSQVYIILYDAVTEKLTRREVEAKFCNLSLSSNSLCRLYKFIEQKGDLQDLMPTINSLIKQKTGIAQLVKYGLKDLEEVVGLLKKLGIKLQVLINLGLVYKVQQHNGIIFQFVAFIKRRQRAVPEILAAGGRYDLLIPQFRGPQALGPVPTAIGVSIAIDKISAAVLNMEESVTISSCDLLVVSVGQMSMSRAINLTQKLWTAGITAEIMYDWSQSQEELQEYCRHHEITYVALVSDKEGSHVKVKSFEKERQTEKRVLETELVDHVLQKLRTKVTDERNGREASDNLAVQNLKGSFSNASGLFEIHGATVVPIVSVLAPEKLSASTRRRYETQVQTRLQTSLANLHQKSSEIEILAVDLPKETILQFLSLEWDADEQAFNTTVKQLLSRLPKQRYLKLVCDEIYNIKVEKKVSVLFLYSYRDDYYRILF

This experiment has as its target GCN2 (Homo sapiens (Human), UniProt Q9P2K8). The experiment can be described thus: GCN2 enzyme assay. Format: biochemical. The protocol: For GCN2 enzyme assays, testing compounds were prepared at proper concentrations in DMSO solution. IC50 values were calculated from a remaining activity using read conversion ratio.
Take `CCc1cc(-c2c(F)ccc(NS(=O)(=O)c3cc(Cl)cnc3OC)c2F)cc2cnc(N[C@@H]3CC[C@@H](C(=O)NCCOC)C3)nc12` [Compound 54, (1R,3R)-3-((6-(3-((5-chloro-2-methoxypyridine)-3-sulfonamido)-2,6-difluorophenyl)-8-ethylquinazolin-2-yl)amino)-N-(2-methoxyethyl)cyclo-pentane-1-carboxamide]: the pIC50 – broadly, the IC50 on a negative log10 scale, so that one unit is a factor of ten – is 7.46.

`CCc1cc(-c2c(F)ccc(NS(=O)(=O)c3cc(Cl)cnc3OC)c2F)cc2cnc(N[C@H]3CC[C@H](N(C)C)CC3)nc12` [Compound 57, 5-chloro-N-(3-(2-(((1R,4R)-4-(dimethylamino)cy-clohexyl)amino)-8-ethylquinazolin-6-yl)-2,4-difluorophenyl)-2-methoxypyridine-3-sulfonamide] showed a pIC50 of 8.40.

Turning to `COc1ncc(Cl)cc1S(=O)(=O)Nc1ccc(F)c(-c2ccc3nc(N[C@H]4CC[C@H](N(C)C)CC4)ncc3c2)c1F` [Compound 61, 5-chloro-N-(3-(2-(((1R,4R)-4-(dimethylamino)cy-clohexyl)amino)quinazolin-6-yl)-2,4-difluorophenyl)-2-methoxypyridine-3-sulfonamide], the pIC50 is 8.63.

Turning to `COc1ncc(Cl)cc1S(=O)(=O)Nc1ccc(F)c(-c2ccc3nc(N[C@H]4CC[C@H](N)CC4)ncc3c2)c1F` [Compound 62, N-(3-(2-(((1R,4R)-4-aminocyclohexyl)amino)quinazolin-6-yl)-2,4-difluorophenyl)-5-chloro-2-methoxypyridine-3-sulfonamide], the pIC50 is 8.79.

`CCc1cc(-c2c(F)ccc(NS(=O)(=O)c3ccccc3Cl)c2F)cc2cnc(N[C@H]3CC[C@H](N(C)C)CC3)nc12` [Compound 64, 2-chloro-N-(3-(2-(((1R,4R)-4-(dimethylamino)cy-clohexyl)amino)-8-ethylquinazolin-6-yl)-2,4-difluorophenyl)ben-zenesulfonamide] gave a pIC50 of 7.57.

For `CCc1cc(-c2c(F)ccc(NS(=O)(=O)c3ccccc3Cl)c2F)cc2cnc(N[C@H]3CC[C@H](NC)CC3)nc12` [Compound 65, 2-chloro-N-(3-(8-ethyl-2-(((1R,4R)-4-(methylamino)cyclo-hexyl)amino)quina-zolin-6-yl)-2,4-difluorophenyl)ben-zenesulfonamide], the pIC50 was 7.36.

The compound `CN[C@H]1CC[C@H](Nc2ncc3cc(-c4c(F)ccc(NS(=O)(=O)c5ccccc5Cl)c4F)ccc3n2)CC1` [Compound 66, 2-chloro-N-(2,4-difluoro-3-(2-(((1R,4R)-4-(methylamino)cyclo-hexyl)amino)quina-zolin-6-yl)phenyl)benzene-sulfonamide] showed a pIC50 of 7.20.

Compound `CCc1cc(-c2c(F)ccc(NS(=O)(=O)c3ccccc3Cl)c2F)cc2cnc(N[C@H]3CC[C@H](N)CC3)nc12` [Compound 68, N-(3-(2-(((1R,4R)-4-aminocyclohexyl)amino)-8-ethylquinazolin-6-yl)-2,4-difluorophenyl)-2-chlorobenzenesulfon-amide] had a negative logarithm of the IC50 (pIC50) of 7.40.

In turn, `CN(C)[C@H]1CC[C@H](Nc2ncc3cc(-c4c(F)ccc(NS(=O)(=O)c5ccccc5Cl)c4F)ccc3n2)CC1` [Compound 70, 2-chloro-N-(3-(2-(((1R,4R)-4-(dimethylamino)cy-clohexyl)amino)quinazolin-6-yl)-2,4-difluorophenyl)ben-zenesulfonamide] had a pIC50 of 7.09.

In turn, `N[C@H]1CC[C@H](Nc2ncc3cc(-c4c(F)ccc(NS(=O)(=O)c5ccccc5Cl)c4F)ccc3n2)CC1` [Compound 71, N-(3-(2-(((1R,4R)-4-aminocyclohexyl)amino)quinazolin-6-yl)-2,4-difluorophenyl)-2-chlorobenzenesulfon-amide 2,2,2-trifluoroacetate] had a pIC50 of 6.91.

The compound `Nc1ncc2cc(-c3c(Cl)cnc(NS(=O)(=O)c4ccccc4Cl)c3Cl)ccc2n1` [Compound 73, N-(4-(2-aminoquinazolin-6-yl)-3,5-dichloropyridin-2-yl)-2-chlorobenzenesulfon-amide] had a pIC50 of 7.71.

The compound `Nc1ncc2cc(-c3c(F)cnc(NS(=O)(=O)c4ccccc4Cl)c3F)ccc2n1` [Compound 75, N-(4-(2-aminoquinazolin-6-yl)-3,5-difluoropyridin-2-yl)-2-chlorobenzenesulfon-amide] gave a pIC50 of 6.44.
